Measurements reported in the supplement of paper PMC10307832.

How the values were obtained:
Assay in all cases: relative viability (nuclei count vs DMSO), 5 days (fraction); higher = more cells survive
NCI-H647 = test system: NCI-H647
Method in brief: (§1)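 Lung cancer cell lines were seeded in 1536-well plates and dosed by pin tool the next day, with either a single drug or a fixed anchor-drug dose combined with five library-drug doses (not always all listed) spaced in √10 steps. Five days later, one step fixed the cells and stained their nuclei (final 0.05% Triton X-100, 1% formaldehyde, 1 ug/ml Hoechst), and nuclei were counted on 4× images. Relative viability is the nuclei count in treated wells divided by the count in vehicle wells, and each value is the median of duplicate plates.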

LU99A = test system: LU99A
Method in brief: as §1

NCI-H1395 = test system: NCI-H1395
Method in brief: as §1

H3255 = test system: H3255
Method in brief: as §1

HCC-827 = test system: HCC-827
Method in brief: as §1

BEN = test system: BEN
Method in brief: as §1

SW 1573 = test system: SW 1573
Method in brief: as §1

NCI-H1975 = test system: NCI-H1975
Method in brief: as §1

NCI-H2087 = test system: NCI-H2087
Method in brief: as §1

EKVX = test system: EKVX
Method in brief: as §1

HCC-44 = test system: HCC-44
Method in brief: as §1

LCLC-97TM1 = test system: LCLC-97TM1
Method in brief: as §1

LOU-NH91 = test system: LOU-NH91
Method in brief: as §1

NCI-H1666 = test system: NCI-H1666
Method in brief: as §1

NCI-H358 = test system: NCI-H358
Method in brief: as §1

COR-L 105 = test system: COR-L 105
Method in brief: as §1

201T = test system: 201T
Method in brief: as §1

NCI-H1437 = test system: NCI-H1437
Method in brief: as §1

EPLC-272H = test system: EPLC-272H
Method in brief: as §1

NCI-H2085 = test system: NCI-H2085
Method in brief: as §1

HOP-62 = test system: HOP-62
Method in brief: as §1

NCI-H2342 = test system: NCI-H2342
Method in brief: as §1

PC-3 [JPC-3] = test system: PC-3 [JPC-3]
Method in brief: as §1

`CC1(C)CCC(c2ccc(Cl)cc2)=C(CN2CCN(c3ccc(C(=O)NS(=O)(=O)c4ccc(N[C@H](CCN5CCOCC5)CSc5ccccc5)c(S(=O)(=O)C(F)(F)F)c4)cc3)CC2)C1` [Navitoclax] + Nc1ncn([C@H]2C[C@H](O)[C@@H](CO)O2)c(=O)n1 [Decitabine] (partner 2 µM) gave a relative viability (NCI-H647; first compound 0.005 µM) of 0.403, a relative viability (NCI-H647; first compound 0.01581 µM) of 0.413 and a relative viability (NCI-H647; first compound 0.05 µM) of 0.409. It also gave a relative viability (NCI-H647; first compound 0.1581 µM) of 0.275, a relative viability (NCI-H647; first compound 0.5 µM) of 0.32 and a relative viability (LU99A; first compound 0.005 µM) of 0.876. It also gave a relative viability (LU99A; first compound 0.01581 µM) of 0.977, a relative viability (LU99A; first compound 0.1581 µM) of 0.921 and a relative viability (LU99A; first compound 0.5 µM) of 0.989. The relative viability (NCI-H1395; first compound 0.005 µM) was 0.706, the relative viability (NCI-H1395; first compound 0.01581 µM) was 0.701 and the relative viability (NCI-H1395; first compound 0.05 µM) was 0.724. It also gave a relative viability (NCI-H1395; first compound 0.1581 µM) of 0.713, a relative viability (NCI-H1395; first compound 0.5 µM) of 0.699 and a relative viability (H3255; first compound 0.005 µM) of 0.503. It also gave a relative viability (H3255; first compound 0.01581 µM) of 0.668, a relative viability (H3255; first compound 0.05 µM) of 0.567 and a relative viability (H3255; first compound 0.1581 µM) of 0.596. For the same molecule, the relative viability (H3255; first compound 0.5 µM) was 0.519, the relative viability (HCC-827; first compound 0.005 µM) was 0.364 and the relative viability (HCC-827; first compound 0.01581 µM) was 0.325. For the same molecule, the relative viability (HCC-827; first compound 0.05 µM) was 0.314, the relative viability (HCC-827; first compound 0.1581 µM) was 0.327 and the relative viability (HCC-827; first compound 0.5 µM) was 0.31. It also gave a relative viability (BEN; first compound 0.005 µM) of 0.784, a relative viability (BEN; first compound 0.01581 µM) of 0.803 and a relative viability (BEN; first compound 0.05 µM) of 0.734. It also gave a relative viability (BEN; first compound 0.1581 µM) of 0.712, a relative viability (BEN; first compound 0.5 µM) of 0.443 and a relative viability (SW 1573; first compound 0.005 µM) of 0.498. The relative viability (SW 1573; first compound 0.01581 µM) was 0.683, the relative viability (SW 1573; first compound 0.05 µM) was 0.387 and the relative viability (SW 1573; first compound 0.1581 µM) was 0.386. The relative viability (SW 1573; first compound 0.5 µM) was 0.364, the relative viability (NCI-H1975; first compound 0.005 µM) was 0.432 and the relative viability (NCI-H1975; first compound 0.01581 µM) was 0.392. The relative viability (NCI-H1975; first compound 0.05 µM) was 0.261, the relative viability (NCI-H1975; first compound 0.1581 µM) was 0.416 and the relative viability (NCI-H1975; first compound 0.5 µM) was 0.29. The relative viability (NCI-H2087; first compound 0.005 µM) was 0.277, the relative viability (NCI-H2087; first compound 0.01581 µM) was 0.314 and the relative viability (NCI-H2087; first compound 0.1581 µM) was 0.231. The relative viability (NCI-H2087; first compound 0.5 µM) was 0.266, the relative viability (EKVX; first compound 0.005 µM) was 0.372 and the relative viability (EKVX; first compound 0.01581 µM) was 0.428. It also gave a relative viability (EKVX; first compound 0.05 µM) of 0.361, a relative viability (EKVX; first compound 0.1581 µM) of 0.285 and a relative viability (EKVX; first compound 0.5 µM) of 0.343. It also gave a relative viability (HCC-44; first compound 0.005 µM) of 0.921, a relative viability (HCC-44; first compound 0.01581 µM) of 0.867 and a relative viability (HCC-44; first compound 0.05 µM) of 0.903. It also gave a relative viability (HCC-44; first compound 0.1581 µM) of 0.861, a relative viability (HCC-44; first compound 0.5 µM) of 0.898 and a relative viability (LCLC-97TM1; first compound 0.005 µM) of 0.229. It also gave a relative viability (LCLC-97TM1; first compound 0.01581 µM) of 0.268, a relative viability (LCLC-97TM1; first compound 0.05 µM) of 0.224 and a relative viability (LCLC-97TM1; first compound 0.1581 µM) of 0.217. For the same molecule, the relative viability (LCLC-97TM1; first compound 0.5 µM) was 0.271, the relative viability (LOU-NH91; first compound 0.005 µM) was 0.798 and the relative viability (LOU-NH91; first compound 0.01581 µM) was 0.88. It also gave a relative viability (LOU-NH91; first compound 0.05 µM) of 0.79, a relative viability (LOU-NH91; first compound 0.1581 µM) of 0.711 and a relative viability (LOU-NH91; first compound 0.5 µM) of 0.391. For the same molecule, the relative viability (NCI-H1666; first compound 0.005 µM) was 0.781, the relative viability (NCI-H1666; first compound 0.01581 µM) was 0.759 and the relative viability (NCI-H1666; first compound 0.05 µM) was 0.628. For the same molecule, the relative viability (NCI-H1666; first compound 0.1581 µM) was 0.692, the relative viability (NCI-H1666; first compound 0.5 µM) was 0.765 and the relative viability (NCI-H358; first compound 0.005 µM) was 0.234. For the same molecule, the relative viability (NCI-H358; first compound 0.01581 µM) was 0.225, the relative viability (NCI-H358; first compound 0.05 µM) was 0.206 and the relative viability (NCI-H358; first compound 0.1581 µM) was 0.213. The relative viability (NCI-H358; first compound 0.5 µM) was 0.187, the relative viability (COR-L 105; first compound 0.005 µM) was 0.737 and the relative viability (COR-L 105; first compound 0.01581 µM) was 0.89. For the same molecule, the relative viability (COR-L 105; first compound 0.05 µM) was 0.6, the relative viability (COR-L 105; first compound 0.1581 µM) was 0.662 and the relative viability (COR-L 105; first compound 0.5 µM) was 0.537. It also gave a relative viability (201T; first compound 0.005 µM) of 0.891, a relative viability (201T; first compound 0.01581 µM) of 0.869 and a relative viability (201T; first compound 0.05 µM) of 0.77. For the same molecule, the relative viability (201T; first compound 0.1581 µM) was 0.824, the relative viability (201T; first compound 0.5 µM) was 0.859 and the relative viability (NCI-H1437; first compound 0.005 µM) was 0.549. The relative viability (NCI-H1437; first compound 0.01581 µM) was 0.547, the relative viability (NCI-H1437; first compound 0.05 µM) was 0.619 and the relative viability (NCI-H1437; first compound 0.1581 µM) was 0.519. The relative viability (NCI-H1437; first compound 0.5 µM) was 0.581, the relative viability (EPLC-272H; first compound 0.005 µM) was 0.346 and the relative viability (EPLC-272H; first compound 0.05 µM) was 0.377. The relative viability (EPLC-272H; first compound 0.1581 µM) was 0.302, the relative viability (EPLC-272H; first compound 0.5 µM) was 0.38 and the relative viability (NCI-H2085; first compound 0.005 µM) was 0.612. It also gave a relative viability (NCI-H2085; first compound 0.01581 µM) of 0.695, a relative viability (NCI-H2085; first compound 0.05 µM) of 0.474 and a relative viability (NCI-H2085; first compound 0.1581 µM) of 0.579. It also gave a relative viability (NCI-H2085; first compound 0.5 µM) of 0.562, a relative viability (HOP-62; first compound 0.005 µM) of 0.22 and a relative viability (HOP-62; first compound 0.01581 µM) of 0.21. It also gave a relative viability (HOP-62; first compound 0.05 µM) of 0.173, a relative viability (HOP-62; first compound 0.1581 µM) of 0.191 and a relative viability (HOP-62; first compound 0.5 µM) of 0.205. It also gave a relative viability (NCI-H2342; first compound 0.005 µM) of 0.799, a relative viability (NCI-H2342; first compound 0.01581 µM) of 0.764 and a relative viability (NCI-H2342; first compound 0.05 µM) of 0.653. For the same molecule, the relative viability (NCI-H2342; first compound 0.1581 µM) was 0.679, the relative viability (NCI-H2342; first compound 0.5 µM) was 0.713 and the relative viability (PC-3 [JPC-3]; first compound 0.005 µM) was 0.922. The relative viability (PC-3 [JPC-3]; first compound 0.01581 µM) was 0.876, the relative viability (PC-3 [JPC-3]; first compound 0.05 µM) was 0.912 and the relative viability (PC-3 [JPC-3]; first compound 0.1581 µM) was 0.758. The relative viability (PC-3 [JPC-3]; first compound 0.5 µM) was 0.653.
